Laboratory results reported in ChEMBL document CHEMBL1135808, “A new type of mixed anhydride and its applications to the synthesis of 7-substituted 8-chloro-5,5-dioxoimidazo[1,2-b][1,4,2]benzodithiazines with in vitro antitumor activity” (2002).

Assays:
RPMI-8226 [1] = experiment: In vitro growth inhibition against leukemia […] cell line was reported.; format: functional; conditions: Homo sapiens
RPMI-8226 [2] = experiment: Log of molar concentration leading to 50% cell death against leukemia […] cell line was reported; format: functional; conditions: Homo sapiens, read-out: Log LC50 (the source's name) (converted)
TK-10 [3] = experiment: In vitro total growth inhibition against renal cancer TK-10 cell lines was reported.; format: functional; conditions: Homo sapiens, read-out: Log TGI (converted)
SR [4] = experiment: In vitro growth inhibition against leukemia SR cell line was reported.; format: functional; conditions: Homo sapiens
Homo sapiens = species: Homo sapiens; experiment: In vitro total growth inhibition against non-small-cell lung cancer EKVX cell lines was reported.; format: functional; conditions: read-out: Log TGI (converted)
KM12 = experiment: In vitro total growth inhibition against colon cancer KM12 cell lines was reported.; format: functional; conditions: Homo sapiens, read-out: Log TGI (converted)
COLO 205 = experiment: Log of molar concentration leading to 50% cell death against colon cancer COLO 205 cell line was reported; format: functional; conditions: Homo sapiens, read-out: Log LC50 (the source's name) (converted)
RPMI-8226 [5] = experiment: In vitro total growth inhibition against leukemia […] cell lines was reported.; format: functional; conditions: Homo sapiens, read-out: Log TGI (converted)
A549 [6] = experiment: In vitro growth inhibition against non-small-cell lung cancer A 549/ATCC cell line was reported.; format: functional; conditions: Homo sapiens
UACC-62 = experiment: In vitro growth inhibition against melanoma UACC-62 cell line was reported.; format: functional; conditions: Homo sapiens
SR [7] = experiment: In vitro total growth inhibition against leukemia SR cell lines was reported.; format: functional; conditions: Homo sapiens, read-out: Log TGI (converted)
SF-295 [8] = experiment: Log of molar concentration leading to 50% cell death against CNS cancer SF-295 cell line was reported; format: functional; conditions: Homo sapiens, read-out: Log LC50 (the source's name) (converted)
NCI-H46 = experiment: In vitro growth inhibition against non-small-cell lung cancer […] cell line was reported.; format: functional; conditions: Homo sapiens
TK-10 [9] = experiment: Log of molar concentration leading to 50% cell death against renal cancer TK-10 cell line was reported; format: functional; conditions: Homo sapiens, read-out: Log LC50 (the source's name) (converted)
OVCAR-3 [10] = experiment: In vitro growth inhibition against ovarian cancer OVCAR-3 cell line was reported.; format: functional; conditions: Homo sapiens
SF-539 [11] = experiment: In vitro total growth inhibition against CNS cancer SF-539 cell lines was reported.; format: functional; conditions: Homo sapiens, read-out: Log TGI (converted)
NCI/ADR-RES = experiment: In vitro growth inhibition against breast cancer NCI/ADR-RES cell line was reported.; format: functional; conditions: Homo sapiens
SF-295 [12] = experiment: In vitro growth inhibition against CNS cancer SF-295 cell line was reported.; format: functional; conditions: Homo sapiens
UACC-257 [13] = experiment: In vitro total growth inhibition against melanoma UACC-257 cell line was reported.; format: functional; conditions: Homo sapiens
MDA-N = experiment: In vitro growth inhibition against breast cancer MDA-N cell line was reported.; format: functional; conditions: Homo sapiens
Tumor Cell line [14] = experiment: In vitro total growth inhibition for 50 cell lines was reported as log of molar concentration; format: functional, Homo sapiens
OVCAR-8 = experiment: Log of molar concentration leading to 50% cell death against ovarian cancer OVCAR-8 cell line was reported; format: functional; conditions: Homo sapiens, read-out: Log LC50 (the source's name) (converted)
HCT-116 = experiment: In vitro growth inhibition against colon cancer HCT116 cell line was reported.; format: functional; conditions: Homo sapiens
MOLT-4 = experiment: In vitro growth inhibition against leukemia MOLT-4 cell line was reported.; format: functional; conditions: Homo sapiens
SF-539 [15] = experiment: Log of molar concentration leading to 50% cell death against CNS cancer SF-539 cell line was reported; format: functional; conditions: Homo sapiens, read-out: Log LC50 (the source's name) (converted)
A549 [16] = experiment: In vitro total growth inhibition against non-small-cell lung cancer A 549/ATCC cell lines was reported.; format: functional; conditions: Homo sapiens, read-out: Log TGI (converted)
OVCAR-3 [17] = experiment: Log of molar concentration leading to 50% cell death against ovarian cancer OVCAR-3 cell line was reported; format: functional; conditions: Homo sapiens, read-out: Log LC50 (the source's name) (converted)
Tumor Cell line [18] = experiment: Log of molar concentration leading to 50% cell death was reported; format: functional; conditions: Homo sapiens, read-out: Log LC50 (the source's name) (converted)
EKVX = experiment: In vitro growth inhibition against non-small-cell lung cancer EKVX cell line was reported.; format: functional; conditions: Homo sapiens
CCRF-CEM = experiment: In vitro growth inhibition against leukemia CCRF-CEM cell line was reported.; format: functional; conditions: Homo sapiens
M14 [19] = experiment: Log of molar concentration leading to 50% cell death against melanoma M14 cell line was reported; format: functional; conditions: Homo sapiens, read-out: Log LC50 (the source's name) (converted)
SNB-75 = experiment: In vitro growth inhibition against CNS cancer SNB-75 cell line was reported.; format: functional; conditions: Homo sapiens
NCI-H522 = experiment: Log of molar concentration leading to 50% cell death against non-small-cell lung cancer NCI-522 cell line was reported; format: functional; conditions: Homo sapiens, read-out: Log LC50 (the source's name) (converted)
UACC-257 [20] = experiment: Log of molar concentration leading to 50% cell death against melanoma UACC-257 cell line was reported; format: functional; conditions: Homo sapiens, read-out: Log LC50 (the source's name) (converted)
ACHN = experiment: In vitro growth inhibition against renal cancer ACHN cell line was reported.; format: functional; conditions: Homo sapiens
T47D [21] = experiment: In vitro growth inhibition against breast cancer […] cell line was reported.; format: functional; conditions: Homo sapiens
NCI-H23 = experiment: In vitro total growth inhibition against non-small-cell lung cancer NCI-H23 cell lines was reported.; format: functional; conditions: Homo sapiens, read-out: Log TGI (converted)
RXF 393 [22] = experiment: Log of molar concentration leading to 50% cell death against renal cancer RXF 393 cell line was reported; format: functional; conditions: Homo sapiens, read-out: Log LC50 (the source's name) (converted)
MCF7 [23] = experiment: In vitro growth inhibition against breast cancer MCF 7 cell line was reported.; format: functional; conditions: Homo sapiens
OVCAR-4 = experiment: In vitro growth inhibition against ovarian cancer OVCAR-4 cell line was reported.; format: functional; conditions: Homo sapiens
HL-60 [24] = experiment: Log of molar concentration leading to 50% cell death against leukemia HL-60(TB) cell line was reported; format: functional; conditions: Homo sapiens, read-out: Log LC50 (the source's name) (converted)
SK-MEL-2 = experiment: Log of molar concentration leading to 50% cell death against melanoma SK-MEL-2 cell line was reported; format: functional; conditions: Homo sapiens, read-out: Log LC50 (the source's name) (converted)
SK-MEL-5 = experiment: In vitro total growth inhibition against melanoma SK-MEL-5 cell lines was reported.; format: functional; conditions: Homo sapiens, read-out: Log TGI (converted)
RXF 393 [25] = experiment: In vitro growth inhibition against renal cancer RXF 393 cell line was reported.; format: functional; conditions: Homo sapiens
HOP-92 = experiment: In vitro total growth inhibition against non-small-cell lung cancer HOP-92 cell lines was reported.; conditions: Homo sapiens, read-out: Log TGI (converted)
786-0 [26] = experiment: Log of molar concentration leading to 50% cell death against renal cancer […] cell line was reported; format: functional; conditions: Homo sapiens, read-out: Log LC50 (the source's name) (converted)
HL-60 [27] = experiment: In vitro total growth inhibition against leukemia HL-60(TB) cell lines was reported.; format: functional; conditions: Homo sapiens, read-out: Log TGI (converted)
MCF7 [28] = experiment: Log of molar concentration leading to 50% cell death against breast cancer MCF 7 cell line was reported; format: functional; conditions: Homo sapiens, read-out: Log LC50 (the source's name) (converted)
SF-295 [29] = experiment: In vitro total growth inhibition against CNS cancer SF-295 cell lines was reported.; format: functional; conditions: Homo sapiens, read-out: Log TGI (converted)
M14 [30] = experiment: In vitro growth inhibition against melanoma M14 cell line was reported.; format: functional; conditions: Homo sapiens
PC-3 = experiment: Log of molar concentration leading to 50% cell death against prostate cancer PC-3 cell line was reported; format: functional; conditions: Homo sapiens, read-out: Log LC50 (the source's name) (converted)
U-251 [31] = experiment: In vitro growth inhibition against CNS cancer U251 cell line was reported.; format: functional; conditions: Homo sapiens
T47D [32] = experiment: In vitro total growth inhibition against breast cancer […] cell lines was reported.; format: functional; conditions: Homo sapiens, read-out: Log TGI (converted)
TK-10 [33] = experiment: In vitro growth inhibition against renal cancer TK-10 cell line was reported.; format: functional; conditions: Homo sapiens
UO-31 = experiment: In vitro total growth inhibition against renal cancer UO-31 cell lines was reported.; format: functional; conditions: Homo sapiens, read-out: Log TGI (converted)
CAKI-1 [34] = experiment: In vitro total growth inhibition against renal cancer CAKI-1cell lines was reported.; format: functional; conditions: Homo sapiens, read-out: Log TGI (converted)
U-251 [35] = experiment: In vitro total growth inhibition against CNS cancer U251 cell lines was reported.; format: functional; conditions: Homo sapiens, read-out: Log TGI (converted)
NCI-H322M = experiment: In vitro growth inhibition against non-small-cell lung cancer […] cell line was reported.; format: functional; conditions: Homo sapiens
CAKI-1 [36] = experiment: In vitro growth inhibition against renal cancer CAKI-1 cell line was reported.; format: functional; conditions: Homo sapiens
LOX IMVI = experiment: In vitro total growth inhibition against melanoma LOX IMVI cell lines was reported.; format: functional; conditions: Homo sapiens, read-out: Log TGI (converted)
786-0 [37] = experiment: In vitro total growth inhibition against renal cancer […] cell lines was reported.; format: functional; conditions: Homo sapiens, read-out: Log TGI (converted)

## O=C(Nc1nccs1)c1cc2c(cc1Cl)Sc1nccn1S2(=O)=O
RPMI-8226 [1]
  GI50: 9.33 µM
RPMI-8226 [2]
  CC50: 57.5 µM
TK-10 [3]
  TGI: 34.7 µM
SR [4]
  GI50: 3.02 µM
Homo sapiens
  TGI: 44.7 µM
KM12
  TGI: 26.3 µM
COLO 205
  CC50: 56.2 µM
RPMI-8226 [5]
  TGI: 23.4 µM
A549 [6]
  GI50: 24 µM
UACC-62
  GI50: 14.5 µM
SR [7]
  TGI: 12 µM
SF-295 [8]
  CC50: 64.6 µM
NCI-H46
  GI50: 15.8 µM
TK-10 [9]
  CC50: 63.1 µM
OVCAR-3 [10]
  GI50: 15.1 µM
SF-539 [11]
  TGI: 37.2 µM
NCI/ADR-RES
  GI50: 19.1 µM
SF-295 [12]
  GI50: 18.2 µM
UACC-257 [13]
  GI50: 13.8 µM
MDA-N
  GI50: 17.8 µM
Tumor Cell line [14]
  Log GTI: -4.04
OVCAR-8
  CC50: 79.4 µM
HCT-116
  GI50: 16.2 µM
MOLT-4
  GI50: 19.1 µM
SF-539 [15]
  CC50: 72.4 µM
A549 [16]
  TGI: 63.1 µM
OVCAR-3 [17]
  CC50: 53.7 µM
Tumor Cell line [18]
  CC50: 97.7 µM
EKVX
  GI50: 20.4 µM
CCRF-CEM
  GI50: 5.01 µM
M14 [19]
  CC50: 67.6 µM
SNB-75
  GI50: 18.6 µM
NCI-H522
  CC50: 6.61 µM
UACC-257 [20]
  CC50: 52.5 µM
ACHN
  GI50: 17.8 µM
T47D [21]
  GI50: 23.4 µM
NCI-H23
  TGI: 33.9 µM
RXF 393 [22]
  CC50: 83.2 µM
MCF7 [23]
  GI50: 6.76 µM
OVCAR-4
  GI50: 16.2 µM
HL-60 [24]
  CC50: 70.8 µM
SK-MEL-2
  CC50: 63.1 µM
SK-MEL-5
  TGI: 30.2 µM
RXF 393 [25]
  GI50: 19.1 µM
HOP-92
  TGI: 39.8 µM
786-0 [26]
  CC50: 53.7 µM
HL-60 [27]
  TGI: 30.9 µM
MCF7 [28]
  CC50: 44.7 µM
SF-295 [29]
  TGI: 34.7 µM
M14 [30]
  GI50: 17.8 µM
PC-3
  CC50: 66.1 µM
U-251 [31]
  GI50: 17.4 µM
T47D [32]
  TGI: 64.6 µM
TK-10 [33]
  GI50: 19.1 µM
UO-31
  TGI: 14.8 µM
CAKI-1 [34]
  TGI: 37.2 µM
U-251 [35]
  TGI: 30.9 µM
NCI-H322M
  GI50: 17.4 µM
CAKI-1 [36]
  GI50: 8.51 µM
LOX IMVI
  TGI: 25.7 µM
786-0 [37]
  TGI: 29.5 µM
